Experimental data reported in patent publication US6864285B1, “Covalent derivatives of alkanolamides of monocarboxylic and dicarboxylic acids functionally active on the CB2 cannabinoid receptor” (Innovet Italia S.r.l., priority 1999, dated 2005).
Values after ≈ are worked out from the molar mass of the structure shown. Where two headings read alike, the source gives them in different places.

Key:
[1] = Lipid/water partition parameter RM from thin-film chromatography on silica gel; assay type: physicochemical; details: for ΔRM solvent 1 / RM solvent 1 / RF solvent 1: Solvent 1: 100% ethyl acetate; for ΔRM solvent 1 / ΔRM solvent 2: RM of derivative minus RM of corresponding alkanolamide; for RM solvent 1 / RM solvent 2: RM=log (1/Rf−1); for RF solvent 1 / RF solvent 2: silica gel; for ΔRM solvent 2 / RM solvent 2 / RF solvent 2: Solvent 2: heptane:isopropanol:ethyl acetate:H2O 40:20:50:2
Experimental: The chemical and physical characteristics of the derivatives according to the invention were evaluated by quantitative measurement of the lipid/water partition parameter.
A useful parameter for evaluating the properties of a compound in relation to its possible absorption is in fact constituted by the coefficient of partition between the lipid phase and the aqueous phase, which is considered to be an expression of its lipophilicity and its degree of hydrophilicity. […] For the purpose of evaluating the characteristics of the derivatives of the invention, the partition parameter RM between the lipid and the aqueous phase, extrapolated from thin-film partition chromatography, was calculated; this parameter is commonly used to evaluate the lipophilic characteristics of compounds (Tomlinson E. J. Chromatogr. 1975, 113, 1) and is commonly used, for example, for local anaesthetics, in which a correlation has been shown between this parameter and biological activity (Bachrata M. et al. J. Chromatogr. 1979, 171, 29-36).
The partition parameter RM between the lipid phase and the aqueous phase was calculated both for the derivatives and for the non-substituted alkanolamides, from the Rf value obtained by thin-film chromatography on silica gel (particles of […], mean porosity 60 Å, thickness 0.25 mm on glass plate) in accordance with the formula: RM=log (1/Rf−1) and the ΔRM was obtained from the difference between the RM coefficients of the derivative and of the corresponding alkanolamide.

[2] = Solubility in water and in organic solvents (chemical and physical characteristics); details: for solubility in water: in words
CB2 receptor [3] = target: T1, CB2 receptor (Rattus norvegicus, UniProt Q9QZN9); test: Binding of [3H]WIN55,212-2 to membranes of RBL-2H3+ cells; details: cell membranes, 300 pM ligand, 90' at 30° C.; read-out: Ki CB2 receptor RBL-2H3 + cells Lig. [3H]WIN55, 212-2
T1 construct: endogenous in cells; host or cells: rat RBL-2H3+ leukemic basophilic cells
T1 sequence (Q9QZN9 1-360): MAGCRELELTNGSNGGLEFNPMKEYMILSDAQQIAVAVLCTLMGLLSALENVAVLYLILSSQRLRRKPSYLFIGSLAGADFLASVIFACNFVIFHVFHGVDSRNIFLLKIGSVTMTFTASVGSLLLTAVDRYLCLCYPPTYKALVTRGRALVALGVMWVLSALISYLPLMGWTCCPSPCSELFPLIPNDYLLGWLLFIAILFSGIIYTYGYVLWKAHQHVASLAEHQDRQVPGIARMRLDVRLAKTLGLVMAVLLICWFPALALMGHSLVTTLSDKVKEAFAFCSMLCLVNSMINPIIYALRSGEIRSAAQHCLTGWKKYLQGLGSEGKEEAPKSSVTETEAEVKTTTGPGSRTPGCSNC
Description: (§1) Effect of alkanolamide molecules on the binding of the synthetic ligands of the CB2 and CB1 cannabinoid receptors, respectively.
(§2) Rat RBL-2H3+ leukemic basophilic cells, which selectively express the cannabinoid CB2 receptor, and mouse N18TG2 neuroblastoma cells which selectively express the CB1 cannabinoid receptor were used. The cells were cultivated as described above (Facci L. et al. (1995) Proc. Natl: Acad: Sci. U.S.A. 92:: 3376-3380; Bisogno T. et al. 1997 J. Biol. Chem., 272: 3315-3323). WIN 55,212.2 was used as the selectively agonist synthetic ligand for the CB2 receptor.
HU-210 was used as the selective […] for the CB2 receptor.
(§3) [^3H]SR141716A (55 Ci/mmol) was supplied by Amersham; [^3H]WIN55,212-2 (43 Ci/mmol) was supplied by NEN. The binding tests were performed with membranes of the cells resuspended in 50 mMol Tris pH 7.0 buffer; 2.5 mMol MgCl2, 0.8 mMol EDTA; 0.05% bovine serum albumin (BSA); 0.01% ethanol, in the presence of 100 μM of phenyl-methyl-sulphonyl fluoride (PMSF-Sigma), with the use, of 300 pM of [^3H]SR141716A and of [^3H]WIN55,212-2, respectively, as the ligand.
(§4) The membranes were incubated for 90′ at 30° C. and filtered on glass microfibre filters (GFC-Whatman) and the radioactivity was detected by liquid scintillation. The specific binding was calculated with the use of either 10 μM SR141716A or 10 μM HU-210.
(§5) The Ki values were calculated by Chang-Prusoff's equation and expressed as concentration μM.

CB1 receptor = target: T2, CB1 receptor (Mus musculus, UniProt P47746); test: Binding of [3H]SR141716A to membranes of N18TG2 cells; details: cell membranes, 300 pM ligand, 90' at 30° C.; read-out: Ki CB1 Receptor N18TG2 cells Lig. [3H]SR141716A
T2 construct: endogenous in cells; host or cells: mouse N18TG2 neuroblastoma cells
Description: as §1, §2
SR141716A was used as the selective antagonist for the CB1 receptor.
as §3, §4, §5

CB2 receptor [4] = target: T1, CB2 receptor; test: Stimulation of cyclic AMP (cAMP) by forskolin in RBL-2H3+ cells; assay type: cell-based; details: 1 μM forskolin
Experimental: Effect of alkanolamide molecules on the stimulation of cyclic AMP (cAMP) by forskolin.
The tests were performed with the aim of checking whether the binding of the molecules of the present invention to the CB2 receptor has functional significance.
It is in fact known that the function activation of the CB2 receptor brings about, at intracellular level, inhibition of the enzymatic activity of adenylate cyclase and a reduction in the levels of the second-messenger cAMP, resulting in an increase in the conductance of the channels to potassium and an inhibition of proteic phosphorylation (Childers S. R. et al. Biochem. Parmacol. 1996, 52: 819-827).
The dosages of cAMP were performed on RBL-2H3+ cells flowing together in Petri dishes with six wells (Falcon); the cells were stimulated for 10′ at 37° C. with 1 μM of forskolin (Fluka) in 400 μl of medium without serum, containing 20 mM HEPES, 0.1 mg/ml BSA and 0.1 mM 1-methyl-3-isobutyl xanthine (Sigma) and either ethanol or alkanolamide molecules with or without the addition of HU-210. After incubation, the cells were extracted and the levels of cAMP were evaluated with a suitable Amersham kit in accordance with the producer's method. The data were expressed in IC50 μM.

[5] = ethanol, organic solvent or mixture
[6] = ethyl acetate, organic solvent or mixture
[7] = n-octanol, organic solvent or mixture

T2 sequence (P47746 whole entry): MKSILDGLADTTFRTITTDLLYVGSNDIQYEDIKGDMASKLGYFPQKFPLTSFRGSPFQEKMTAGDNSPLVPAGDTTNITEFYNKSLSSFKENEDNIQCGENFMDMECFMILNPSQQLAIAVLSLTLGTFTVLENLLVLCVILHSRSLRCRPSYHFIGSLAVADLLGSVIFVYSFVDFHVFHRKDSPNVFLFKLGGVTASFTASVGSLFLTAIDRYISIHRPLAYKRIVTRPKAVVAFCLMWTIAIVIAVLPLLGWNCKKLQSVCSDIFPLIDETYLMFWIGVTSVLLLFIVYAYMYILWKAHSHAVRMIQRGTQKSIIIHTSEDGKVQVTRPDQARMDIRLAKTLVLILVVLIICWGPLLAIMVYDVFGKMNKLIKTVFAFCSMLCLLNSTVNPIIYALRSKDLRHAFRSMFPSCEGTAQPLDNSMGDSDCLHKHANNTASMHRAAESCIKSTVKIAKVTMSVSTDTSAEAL

Row | Compound | ΔRM solvent 1 [1] | RM solvent 1 [1] | RF solvent 1 [1] | ΔRM solvent 2 [1] | RM solvent 2 [1] | RF solvent 2 [1] | solubility in organic solvents: ethanol [2] | solubility (physchem; [5]) [µg/mL] | solubility in water [2] | Ki (CB2 receptor [3]) [nM] | Ki (CB1 receptor) [nM] | other results
1 | O=C(CCCCCCCC(=O)NCCOC1CCCCO1)NCCOC1CCCCO1 (centres unmarked) [Example 12, tetrahydropyranyl ether of N,N^1-bis(2-hydroxyethyl) nonandiamide] | −0.494 | −0.105 | 0.56 | −0.706 | −0.017 | 0.51 | 10 mg/ml in ethanol | – | – | – | – | –
2 | CCCCCCCCCCCCCCCC(=O)NCCCOC(=O)OCC [Example 3, N-[3-(ethoxycarbonyl)oxypropyl]hexadecanamide] | −1.020 | −0.194 | 0.61 | −0.397 | −0.327 | 0.68 | – | 10000 (≈ 25.9 mM) | slightly soluble | – | – | solubility (physchem; [6]): 10000 µg/mL (≈ 25.9 mM); solubility (physchem; [7]): 10000 µg/mL (≈ 25.9 mM)
3 | N,N^1-bis[2-(ethoxycarbonyl)oxyethyl] nonandiamide [Example 4] | −0.866 | −0.477 | 0.75 | −0.723 | −0.035 | 0.52 | 10 mg/ml in ethanol, | – | slightly soluble | 2 ± 0.9 | > 15000 | IC50 (CB2 receptor [4]; 10' at 37° C., read-out: IC50 on forskolin-stimulated cAMP): 1800 nM; IC50 (CB2 receptor [4]; + HU-210 (0.5 μM), read-out: IC50 on forskolin-stimulated cAMP with HU-210): > 20000 nM
4 | CCCCCCCC/C=C\CCCCCCCC(=O)NCCOC(=O)OCC [Example 13, N-[2-(ethoxycarbonyl)oxyethyl] oleoylamide] | −0.984 | −0.231 | 0.63 | −0.365 | −0.347 | 0.69 | 10 mg/ml in ethanol, | – | slightly soluble | – | – | –
5 | CCCCCCCCCCCCCCCC(=O)NCCOC1CCCO1 (centres unmarked) [Example 9, tetrahydrofuranyl ether of N-(2-hydroxyethyl) hexadecanamide] | −0.630 | 0.158 | 0.41 | −0.247 | −0.213 | 0.62 | 10 mg/ml in ethanol | – | slightly soluble | – | – | –
6 | CCCCCCCCCCCCCCCC(=O)NCCOC(=O)OCCN1CCCCC1 [Example 7, N-[2-[(2-piperidinoethoxy)carbonyl]oxyethyl] hexadecanamide] | 0.49 | 1.28 | 0.05 | – | – | – | – | 10000 (≈ 22 mM) | slightly soluble | 9 ± 2.5 | > 15000 | –
7 | O=C(CCCCCCCC(=O)NCCOC1CCCO1)NCCOC1CCCO1 (centres unmarked) [Example 10, tetrahydrofuranyl ether of N,N^1-bis(2-hydroxyethyl) nonandiamide] | −0.424 | −0.035 | 0.52 | −0.584 | 0.105 | 0.44 | 10 mg/ml in ethanol | – | – | – | – | –
8 | CCCCCCCCCCCCCCCC(=O)NCCOC(=O)NCc1ccccc1 [Example 5] | −0.736 | 0.052 | 0.47 | −0.304 | −0.269 | 0.65 | – | – | slightly soluble | – | – | solubility in organic solvents: ethyl acetate, hot ([2]; ethyl acetate, hot): 10 mg/ml in ethyl; solubility in organic solvents: n-octanol, hot ([2]; n-octanol, hot): 10 mg/ml in ethyl
9 | CCCCCCCCCCCCCCCC(=O)NCCOC1CCCCO1 (centres unmarked) [Example 11, tetrahydropyranyl ether of N-(2-hydroxyethyl) hexadecanamide] | 0.666 | 0.122 | 0.43 | −0.304 | −0.269 | 0.65 | – | – | slightly soluble | – | – | solubility in organic solvents: ethyl acetate ([2]; ethyl acetate): 10 mg/ml in ethyl; solubility in organic solvents: n-octanol ([2]; n-octanol): 10 mg/ml in ethyl
10 | CCCCCCCCCCCCCCCC(=O)NCCOC(=O)OCCN1CCCCC1.CS(=O)(=O)O [Example 8, N-[2-[(2-piperidinoethoxy)carbonyl]oxyethyl] hexadecanamide methane sulphonate] | – | – | – | – | – | – | – | 10000 | – | – | – | solubility (physchem; DMSO, organic solvent or mixture): 10000 µg/mL; solubility (physchem; water): 10000 µg/mL
11 | CCCCC1C(=O)N(c2ccccc2)N(c2ccccc2)C1=O [phenyl butazone, reference compound] | – | – | – | – | – | – | – | – | – | > 15000 | > 15000 | –
12 | CCCCCCCCCCCCCCCC(=O)NCCOC(=O)OCC(C)C [Example 2, N-[2-(isobutyloxycarbonyl)oxyethyl] hexadecanamide] | −1.076 | −0.288 | 0.66 | −0.467 | −0.432 | 0.73 | – | 10000 (≈ 25 mM) | slightly soluble | – | – | solubility (physchem; [6]): 1000 µg/mL (≈ 2.5 mM); solubility (physchem; [7]): 10000 µg/mL (≈ 25 mM)
13 | CCCCCCCCCCCCCCCC(=O)NCCOC(=O)OCC [Example 1, N-[2-(ethoxycarbonyl)oxyethyl]hexadecanamide] | −1.001 | −0.213 | 0.62 | −0.403 | −0.368 | 0.70 | – | 10000 (≈ 26.9 mM) | slightly soluble | 6 ± 1.8 | > 15000 | solubility (physchem; [6]): 10000 µg/mL (≈ 26.9 mM); solubility (physchem; [7]): 10000 µg/mL (≈ 26.9 mM)
